Laboratory results reported in US20190183939A1, “CELL THERAPY USING MIDBRAIN-TYPE NEURAL STEM CELLS TREATED WITH VITAMIN C” (INDUSTRY-UNIVERSITY COOPERATION FOUNDATION HANYANG …, priority 2017, published 2019).

Tests used:
[1] = test system: Foxa2 and Lmx1a promoters; assay: DIP-qPCR and ChIP-qPCR on Foxa2 and Lmx1a promoters; format: cell-based, rat; settings: Quercetin 10 μM, 3 hours prior to VC treatment
Text: (§1) Foxa2 and Nurr1 binding sites were identified using the Jaspar database (http://jaspar.genereg.net/) using an 80% score threshold. Predicted Foxa2 and Nurr1 binding sites were coupled with phylogenetic footprinting to eliminate spurious predictions with specified position weight matrix (PWM) settings, as described in the following reference. [Sandelin, A., and Wasserman, W. W. (2004). Constrained binding site diversity within families of transcription factors enhances pattern discovery bioinformatics. Journal of molecular biology 338, 207-215] (Table 2). ChIP and DIP assays were carried out as described in the following reference. [Prolonged membrane depolarization enhances midbrain dopamine neuron differentiation via epigenetic histone modifications. Stem Cells 29, 1861-1873]. Briefly, chromatin or genomic DNA was sheared to an average of 200-500 bp in length using a sonication Bioruptor (BMS, Seoul, Korea) and immunoprecipitated using the antibodies listed in Table 1. Immunoprecipitated DNA fragments were collected using magnetic beads (Invitrogen), purified, and subjected to real-time PCR using the primers listed in Table 3. The comparative cycle threshold method was used to quantify the results. Data were normalized to the input DNA.

Nurr1 and TH promoters = assay: DIP-qPCR and ChIP-qPCR on Nurr1 and TH promoters; format: cell-based, rat; settings: Quercetin 10 μM, 3 hours prior to VC treatment
Text: as §1

## O=c1c(O)c(-c2ccc(O)c(O)c2)oc2cc(O)cc(O)c12 [quercetin]
[1]
  effect on VC-mediated changes to 5mC/5hmC and H3K27m3/H3K9m3 on Foxa2 and Lmx1a genes: abolished
Nurr1 and TH promoters
  effect on VC-induced epigenetic changes on Nurr1 and Th promoter: abolished
